Assay results from patent US11958855B2, “Aurora kinase inhibitors for inhibiting mitotic progression” (Millennium Pharmaceuticals, Inc., priority 2006, dated 2024).

Experiments:
HCT116 cells = test: BrdU cell proliferation assay in HCT116 cells
Procedure: BrdU Cell Proliferation Assay
(§1) Cell proliferation of each cell line was measured using the cell proliferation enzyme-linked immunosorbent assay (ELISA), 5-bromo-2′-deoxyuridine (BrdU) colorimetric kit according to the manufacturer's recommendations. The assay measures cell proliferation by quantifying BrdU incorporation into replicating deoxyribonucleic acid (DNA). Briefly, each well was incubated with 10 μL of BrdU labeling reagent for 2 hours at 37° C. in a humidified cell culture chamber. After aspiration of the labeling media, the cells were fixed and denatured by adding 200 μL of ethanol to each well and incubated for 30 minutes at room temperature.
(§2) Concentration response curves were generated by calculating the decrease in optical density in samples treated with test compound relative to the DMSO-treated controls.

Aurora A = target: T1, Aurora A (Homo sapiens, UniProt O14965); test: pT288 Aurora A autophosphorylation assay; assay type: cell-based; conditions: HCT-116 cells, 60 minutes treatment
T1 construct: Human tumor cells (HCT-116, obtained from ATCC) were grown on 96-well dishes; host or cells: HCT-116
T1 sequence (O14965 1-403): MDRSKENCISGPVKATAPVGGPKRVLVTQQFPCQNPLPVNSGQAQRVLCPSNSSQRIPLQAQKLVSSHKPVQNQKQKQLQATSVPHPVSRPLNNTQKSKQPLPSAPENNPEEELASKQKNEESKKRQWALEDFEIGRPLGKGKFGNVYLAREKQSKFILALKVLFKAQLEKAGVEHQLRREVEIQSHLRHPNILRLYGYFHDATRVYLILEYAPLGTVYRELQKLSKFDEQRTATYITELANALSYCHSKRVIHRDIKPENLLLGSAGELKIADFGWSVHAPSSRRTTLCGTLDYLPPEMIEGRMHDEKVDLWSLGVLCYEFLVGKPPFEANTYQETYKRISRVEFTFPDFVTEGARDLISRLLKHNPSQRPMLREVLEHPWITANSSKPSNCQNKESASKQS
Procedure: pT288 Aurora A Autophosphorylation Assay.
After incubation, the growth medium was replaced with 75 μL of fresh media and 25 μL of test compound was added to the cells in two-fold serial dilutions in dimethyl sulfoxide (DMSO) to achieve final concentrations ranging from 5 to 0.010 μM. Test compound at each dilution was added as replicates in 4 rows on the dish, and DMSO (20 nM) was added to each well of two columns for the untreated controls. The cells were treated with test compound or DMSO for 60 minutes at 37° C. in a humidified cell culture chamber. Cells were then fixed with 4% para-formaldehyde in phosphate-buffered saline (PBS) for 10 minutes, permeated with 0.5% Triton X-100 in PBS for 10 minutes, and washed twice in PBS.
Cells were visualized using a Discovery-1 High Content Imaging System. Images from nine or sixteen sites per well were captured at 200× magnification. Inhibition of Aurora A was determined by measuring pT288 (Aurora A autophosphorylation) fluorescent intensity within MPM2 immunopositive (mitotic) cells using Metamorph software. Concentration response curves were generated by calculating the decrease of pT288 fluorescent intensity in test compound-treated samples relative to the DMSO-treated controls, and growth inhibition (IC50) values were determined from those curves.

SW480 cells = test: BrdU cell proliferation assay in SW480 cells
Procedure: BrdU Cell Proliferation Assay
as §1, §2

[1] = system: HCT-116 human colon carcinoma xenograft; test: In vivo tumor efficacy model, mouse HCT116 human colon carcinoma xenograft
Procedure: In Vivo Tumor Efficacy Model
HCT-116 (1×10^6) cells in McCoy's 5A medium were aseptically injected into the subcutaneous space in the right dorsal flank of female CD-1 nude mice (age 8 weeks, Charles River) using a 23-ga needle. Tumor volumes were calculated using standard procedures (0.5×(length×width^2)). […]. Doses (0.1 mL) were administered via 22 gauge oral gavage needle. Control animals received vehicle alone. Animals were dosed once daily for 21 days, and there were 10 animals in each group. Tumor size and body weight were measured twice per week. Compounds 1 and iii were well-tolerated at all doses in this study. […]

[2] = oral, once daily for 21 days, at each dose

Question: For `COc1cc(Nc2ncc3c(n2)-c2ccc(Cl)cc2C(c2ccccc2F)=NC3)ccc1C(=O)O` [ii], which “BrdU HCT116 LD50” value (HCT116 cells) is on record?
Answer: The value was 0.758 µM.

Question: What about the IC50 (Aurora A) of the same molecule?
Answer: Its IC50 is 150 nM.

Question: And the “BrdU SW480 LD50” value (SW480 cells)?
Answer: Its value is 7.579 µM.

Question: With `COc1cc(Nc2ncc3c(n2)-c2ccc(Cl)cc2C(c2c(F)cccc2OC)=NC3)ccc1C(=O)O` [Compound 1, 4-{[9-chloro-7-(2-fluoro-6-methoxyphenyl)-5H-pyrimido[5,4-d][2]benzazepin-2-yl]amino}-2-methoxybenzoic acid] as the molecule, how does the “in vivo potency compared with compound iii” value ([1]; mouse HCT116 human colon carcinoma xenograft model) read?
Answer: Its value is “more potent than compound iii”.

Question: What about the tolerability ([1]; mouse, in vivo, po) of the same molecule?
Answer: The tolerability was “well-tolerated”.

Question: And the “tumor growth delay (TGD) compared with compound iii” value [1, 2]?
Answer: Its value is “longer tumor growth delay”.

Question: And the “tumor growth inhibition (TGI) compared with compound iii” value [1, 2]?
Answer: The value was “greater tumor growth inhibition”.

Question: What about the “BrdU HCT116 LD50” value (HCT116 cells) of the same molecule?
Answer: The value was 0.03 µM.

Question: What about the “BrdU SW480 LD50” value (SW480 cells) of the same molecule?
Answer: Its value is 0.41 µM.

Question: What does the source list for `O=C(O)c1ccc(Nc2ncc3c(n2)-c2ccc(Cl)cc2C(c2ccccc2F)=NC3)cc1` [i]?
Answer: BrdU HCT116 LD50 (HCT116 cells): 0.707 µM; BrdU SW480 LD50 (SW480 cells): 6.502 µM

Question: With `COc1cccc(F)c1C1=NCc2cnc(Nc3ccc(C(=O)O)cc3)nc2-c2ccc(Cl)cc21` [iii] as the molecule, how does the tolerability ([1]; oral, once daily for 21 days, all doses, female CD-1 nude mice) read?
Answer: Its tolerability is “well-tolerated”.

Question: And the “BrdU HCT116 LD50” value (HCT116 cells)?
Answer: Its value is 0.13 µM.

Question: And the IC50 (Aurora A)?
Answer: Its IC50 is 18 nM.

Question: What about the “BrdU SW480 LD50” value (SW480 cells) of the same molecule?
Answer: Its value is 0.94 µM.
